The source of these data is publication PMC10180515, “Biological Evaluation of Triorganotin Derivatives as Potential Anticancer Agents” (Molecules, 2023).

Where “and” joins values, the source holds several entries; their conditions need not be identical. Identical values can stand only once. Like-named read-outs stand apart in the source and are kept apart here.

One data set has as its system PBMCs. In words: MTT assay of metabolic activity, PBMCs. In kind it is cell-based, human. In general terms: Tetrazolium dyes change colour on reduction, which living cells bring about.
The subject of data set [1] is MCF-10A cells. Nature of the data set: Trypan blue exclusion viability test, MCF-10A. It counts as cell-based, human. The following applies: 24 h.
In data set [2] the test system is CAL-27 cells. Nature of the data set: Trypan blue exclusion viability test, CAL-27. It counts as cell-based, human. To be noted: CAL-27, 24 h.
Data set [3] has as its system U937 cells. Nature of the data set: MTT assay of metabolic activity, U937. It counts as cell-based.
The test system of data set [4] is CAL-27 cells. Nature of the data set: MTT assay of metabolic activity, CAL-27. It counts as cell-based, human.
The test system of data set [5] is MCF-10A cells. Nature of the data set: MTT assay of metabolic activity, MCF-10A. It counts as cell-based, human.
A further data set relates to 12 bp DNA duplex. Nature of the data set: NMR interaction with 12 bp DNA duplex. In kind it is binding. To be noted: 0.2 mM duplex, 6 h incubation; cisplatin two equivalents, TBT-OCOCF3 two or five equivalents. The method, then: In order to investigate the mechanisms underlying the cytotoxicity exerted by TBT-OCOF3, a first approach was to verify whether they were based on a direct interaction with DNA, similar to what was described for metal derivatives such as cisplatin. To this purpose, we investigated if TBT-OCOCF3 could bind to DNA using NMR. For TBT-OCOCF3, the 1D and 2D spectra of 12 bp DNA were acquired in the presence or absence of the compound. As a positive control for the interaction, cisplatin was assayed, which forms adducts or inter- and intra-strand crosslinks resulting in interference in the replication machinery, G2/M cell arrest, and cell death by apoptosis or necrosis. A solution containing 0.2 mM of the duplex, whose sequences are indicated in Figure 3, was annealed directly in the NMR tube. The double-helix formation was confirmed by the appearance of low-field signals belonging to the T- and G-NH groups (Figure 3a, left panel). The DNA’s aromatic signals were assigned to the different types of ^1H nuclei using a combination of ^1H-NMR and ^1H-^1H TOCSY experiments (Figure S3 in the Supplementary Materials) and chemical shift values (Figure 3a, right panel).

Data set [6] has as its system CAL-27 cells, MCF-10A cells, PBMCs, and U937 cells. The following applies: read-out: IC50 metabolic activity (MTT) in all tested cells; 24 h.
The conditions of data set [7]: phosphate buffer pH 7.4, 37 °C, nominal concentration 400 µM. The procedure:
For the NMR studies, the compounds were dissolved in DMSO-d6 and a phosphate buffer (50 mM, 5% D2O, pH = 7.4) containing, as an internal standard, 2,2,4,4-tetradeuterumtrimethylsilylpropionic acid (TSP). The NMR experiments were performed in D2O at 25 °C and recorded with a Bruker Avance spectrometer operating at 700 MHz for ^1H, equipped with a 5 mm inverse TXI probe, z-axis gradients, and a Sample Xpress Lite autosampler. The ^1H-NMR spectra were recorded with a spectral window of 15 ppm, 16 k complex points, and a relaxation delay of 10 s for a total of 16 transients.

For data set [8], the system named is U937 cells. In kind it is cell-based. To be noted: 18 h.
Data set [9] concerns CAL-27 cells. In words: Annexin-V/7-AAD double staining flow cytometry, CAL-27. The following applies: CAL-27, 4 h; TBT-OCOCF3 20 µM, WMN 0.5 µM; mean ± SD. In kind it is cell-based, human.
Data set [10] concerns MCF-10A cells. To be noted: 2-NBDG, 1 h, 10 μM and 20 μM.
For data set [11], the system named is CAL-27 cells. To be noted: CAL-27, 2-NBDG, 1 h, 10 μM and 20 μM.
Where [12] appears, read: 20–80 μM, even at the higher concentration tested.
[13] abbreviates: 24 h, ± SD, three experiments in triplicate.

The IC50 is the concentration needed to halve the response being measured. With `N.N.[Cl][Pt][Cl]` [Cisplatin, cis-diaminedichloroplatinum (II)], the IC50 in the data set on PBMCs (24 h, ± SD, IL-2 stimulated PBMCs of healthy individuals) is 52500 ± 5880 nM; in the data set on U937 cells [3] (setting [13]), 38100 ± 3230 nM; in the data set with CAL-27 cells [4] (setting [13]), 139 ± 59.5 µM; in the data set with MCF-10A cells [5] (setting [13]), 21.5 ± 0.04 µM. Also, the “Susceptibility of cells to treatment (viable cell number)” value in the data set with MCF-10A cells [1] (setting [12]) and with CAL-27 cells [2] (setting [12]) was “resistant” each time. In addition, in the data set on 12 bp DNA duplex, the “Interaction with 12 bp DNA (change in NMR spectrum)” value is recorded as “showed evidence of the interaction”.
One may read the Solubility as the dissolved amount per volume that the medium holds. Low readings indicate little dissolved substance, high ones much dissolved substance. Regarding `CCC[CH2][Sn]([Cl])([CH2]CCC)[CH2]CCC` [TBT-Cl, tributyltin chloride], the IC50 is not above 1000 nM in the data set with PBMCs; 420 ± 300 nM with U937 cells [3]; 0.91 ± 0.53 µM in the data set with CAL-27 cells [4]; ≤ 1000 nM and ~1000 nM in [6]; 1.22 ± 0.41 µM in the data set with MCF-10A cells [5]. In addition, the Inhibition of viability with MCF-10A cells [1] (all of the tested concentrations (1.25 to 20 μM)) is listed as not below 90%. In addition, the “Effect on number of viable cells” value in the data set with CAL-27 cells [2] (all of the concentrations tested (1.25 to 20 μM)) is on record as “greatly decreased the number of viable cells”. For the same compound, in data set [7], the Solubility is 61 µM.
Take `CO[C@H]1C[C@@H]2CC[C@@H](C)[C@@](O)(O2)C(=O)C(=O)N2CCCC[C@H]2C(=O)O[C@H]([C@H](C)C[C@@H]2CC[C@@H](O)[C@H](OC)C2)CC(=O)[C@H](C)/C=C(\C)[C@@H](O)[C@@H](OC)C(=O)[C@H](C)C[C@H](C)/C=C/C=C/C=C/1C` [rapamycin]: the “Autophagic-specific fluorescent green signal compared to control cells” value in the data set with U937 cells [8] (U937, 0.5 μM) is “significant increase”.
`COC[C@H]1OC(=O)c2coc3c2[C@@]1(C)C1=C(C3=O)[C@@H]2CCC(=O)[C@@]2(C)C[C@H]1OC(C)=O` [WMN, wortmannin]: in the data set with CAL-27 cells [9], the “Anx+/7AAD+ cells” value was determined as 0.78 ± 0.04%, the “Anx+/7AAD- cells” value came to 6.42 ± 2.45%, the “Anx-/7AAD+ cells” value is 2.99 ± 0.02% and the Anx-/7AAD- cells was found to be 89.8 ± 4.63%. For the same compound, the “Effect on rapamycin-induced autophagy” value in the data set with U937 cells [8] (U937, wortmannin 0.5 μM cotreatment with rapamycin 0.5 μM) is given as “significantly inhibited”.
Take `CCC[CH2][Sn]([CH2]CCC)([CH2]CCC)[O][Sn]([CH2]CCC)([CH2]CCC)[CH2]CCC` [TBT-O, bis(tributyltin) oxide]: the IC50 with PBMCs came out at 2960 ± 1350 nM; in the data set with U937 cells [3], 1820 ± 210 nM; with CAL-27 cells [4], 13.2 µM; with MCF-10A cells [5], 4.93 ± 2.33 µM. For the same compound, the Inhibition of viability is given as 90% in the data set with MCF-10A cells [1] (5 µM); 100% in the data set on MCF-10A cells [1] (10 µM and 20 µM). For the same compound, the “Effect on trypan-blue-negative (viable) cells recovered” value in the data set on CAL-27 cells [2] (10 µM and 20 µM) is given as “complete inhibition”. Besides, the Glucose uptake inhibition entry in the data set on MCF-10A cells [10] and with CAL-27 cells [11] was “significantly inhibited” in each case. Further, the Solubility in data set [7] is 42 µM.
